This note sets out measurements from ChEMBL document CHEMBL3507680, “University of Dundee, Gates Library screen for HepG2 cell viability”.

This data set in a line: Human HepG2 cell viability assay in 384 well format. Format: toxicity, cell-based. Also noted: dose 125 nL, time 70.5 hour; concentration not given beside the values. The settings on record: HepG2 cells, read-out: Inhibition.

As to `COCCOCC(=O)Nc1cc(C)ccc1F`, the cytotoxicity at 70.5 h was found to be 4.73%.

Regarding `CCc1ccc(CC(=O)N2CCN(c3nccn3C)CC2)cc1`, the cytotoxicity at 70.5 h worked out at 8.19%.

For `CN(CCn1cccn1)C1CCCN(Cc2noc(C3CC3)n2)C1` (configuration not stated), the cytotoxicity at 70.5 h stood at 12.7%.

`CN(Cc1nc2ccccc2s1)C1CCCN(c2cccnn2)C1` (configuration not stated): the cytotoxicity at 70.5 h is -11%.

On to `O=C(CN1CCS(=O)(=O)CC1)NCc1ccccc1F`, for which the cytotoxicity at 70.5 h was -8.79%.

Turning to `CCCC(=O)NC(C)(C)Cc1ccccc1OC`, the cytotoxicity at 70.5 h is -12.8%.

In the case of `CCSCCC(=O)NC1CCN(C(C)c2ccccc2)CC1` (configuration not stated), the cytotoxicity at 70.5 h was -10.7%.

In the case of `N#CCCN(Cc1cccnc1)C(=O)c1cccc(-n2cnnn2)c1`, the cytotoxicity at 70.5 h is -8.57%.

Regarding `COc1ccc(S(=O)(=O)C(C)C(=O)NCCOc2cccc(C)c2)cc1` (configuration not stated), the cytotoxicity at 70.5 h is -3.65%.

For `Cc1cccnc1CNC(=O)NC(C)Cc1c(C)nn(C)c1C` (configuration not stated), the cytotoxicity at 70.5 h is -5.5%.

With `COC(=O)N1CCCC(C(=O)Nc2nc(C)c(SC)s2)C1` (configuration not stated), the cytotoxicity at 70.5 h is -9.54%.

Consider `CCc1nsc(N2CCN(C(=O)c3ccnc(N(C)C)c3)CC2)n1`, for which the cytotoxicity at 70.5 h was -6.45%.

Regarding `Cn1cc(CNCCc2nccs2)c(-c2cccnc2)n1`, the cytotoxicity at 70.5 h was -8.44%.

Regarding `Cc1nc(NC(=O)COCC2CC2)ccc1Br`, the cytotoxicity at 70.5 h was -8.55%.

As to `CN(Cc1nc2ccccc2c(=O)[nH]1)C1CC(=O)N(C2CC2)C1=O` (configuration not stated), the cytotoxicity at 70.5 h is -12.1%.

On to `COC(=O)c1ccc(CNC(C)c2ccc(S(C)(=O)=O)cc2)cc1` (configuration not stated), for which the cytotoxicity at 70.5 h was -1.14%.

On to `CC(=O)NCCNC(=O)NCCc1c(C)cc(C)cc1C`, for which the cytotoxicity at 70.5 h amounted to 0.521%.

In the case of `Cc1ccc(F)c(S(=O)(=O)NCc2cccc(N3CCOC3=O)c2)c1`, the cytotoxicity at 70.5 h was -4.03%.

On to `N#Cc1cnc(NCc2ccc(C(=O)NC3CC3)cc2)c(Cl)c1`, for which the cytotoxicity at 70.5 h was -4.64%.

As for `CS(=O)(=O)Cc1ccc(CNc2ncc(C#N)cc2Cl)cc1`, the cytotoxicity at 70.5 h stood at 1.58%.

Consider `Cc1c(NC(=O)NC2CCCC2)cccc1C(=O)N1CCSCC1`, for which the cytotoxicity at 70.5 h was -3.56%.

For `Cc1nc2scc(C)n2c1CNc1ccc(C(=O)O)cc1`, the cytotoxicity at 70.5 h is 19.2%.

`CCc1nc(CC(=O)N2CCC(C(=O)N3CCCC3)CC2)cs1`: the cytotoxicity at 70.5 h was -9.83%.

Regarding `CN(Cc1nnnn1C1CC1)c1cccc2ccccc12`, the cytotoxicity at 70.5 h was 0.192%.

On to `Cc1nc(CNC(=O)Nc2ccc(N(C)C)nc2)sc1C`, for which the cytotoxicity at 70.5 h is -2.95%.

For `O=C1C(Sc2nc(=O)ccn2C2CC2)CCN1c1ccccc1` (configuration not stated), the cytotoxicity at 70.5 h amounted to 0.555%.

As for `O=C(CC(F)(F)F)NCC(O)c1ccc2ccccc2c1` (configuration not stated), the cytotoxicity at 70.5 h was -3.75%.

Turning to `CCOCC(=O)N1CC(=O)Nc2cc(Br)ccc21`, the cytotoxicity at 70.5 h is -6.53%.

Turning to `CCOCCC(=O)N1CC(=O)Nc2cc(Br)ccc21`, the cytotoxicity at 70.5 h was 22%.

On to `O=C(Nc1ccccc1C(=O)N1CCCC1)NC1CCOCC1`, for which the cytotoxicity at 70.5 h was -7.16%.

Turning to `CCC(CNS(=O)(=O)c1c[nH]cn1)Oc1ccccc1F` (configuration not stated), the cytotoxicity at 70.5 h is -2.67%.

As to `CCc1nc(CC(=O)N2CCC(C(=O)N(CC)CC)CC2)cs1`, the cytotoxicity at 70.5 h is -11.2%.

For the molecule `O=C(c1cccnc1)N(CCO)Cc1cc(Br)ccc1F`, the cytotoxicity at 70.5 h was -3.63%.

For the molecule `Cc1cc(OC(F)F)c(C(=O)N2CC[C@H](O)C2)s1`, the cytotoxicity at 70.5 h is -6.12%.

As to `Cc1cc(C(=O)CN2CCN(c3ncccn3)CC2)c(C)n1C(C)C`, the cytotoxicity at 70.5 h worked out at 12.3%.

As to `O=C(c1ccc(=O)[nH]n1)N(CCO)Cc1cc(Br)ccc1F`, the cytotoxicity at 70.5 h is -5.4%.

`O=C(c1ccccn1)N(CCO)Cc1cc(Br)ccc1F`: the cytotoxicity at 70.5 h stood at 17.2%.

As to `CC(=O)N1CCCN(C(=O)c2ccc(Sc3ccccn3)cc2)CC1`, the cytotoxicity at 70.5 h is -8.48%.

`COc1ccccc1C1(CNCc2ccc(C#N)cc2)CCOCC1`: the cytotoxicity at 70.5 h is -6.31%.

Take `Cc1noc(C(C)NC(=O)[C@@H](C)NC(=O)OC(C)(C)C)n1` (some centres not stated): the cytotoxicity at 70.5 h is -3.59%.

As for `Cc1noc(CNC(=O)[C@@H](C)NC(=O)OC(C)(C)C)n1`, the cytotoxicity at 70.5 h was -2.55%.

With `CCC(CC)(CNC(=O)NC1CCCC1(C)C)S(C)(=O)=O` (configuration not stated), the cytotoxicity at 70.5 h was -7.23%.

`Cn1cnnc1C1CCCN1C(=O)Nc1cccc(OC(F)F)c1` (configuration not stated): the cytotoxicity at 70.5 h is -1.48%.

As to `Cc1cc(OC(F)F)c(C(=O)N2CCC(N(C)C)CC2)s1`, the cytotoxicity at 70.5 h worked out at 31.3%.

As for `COc1ccccc1C1(CNCc2ccc([S+](C)[O-])cc2)CC1` (configuration not stated), the cytotoxicity at 70.5 h is -6.54%.

Regarding `COc1ccc(OC)c(-n2nnnc2SCC2CCCN(C)C2)c1` (configuration not stated), the cytotoxicity at 70.5 h is -3.08%.

With `O=C(c1cccc(CNC/C=C/c2ccccc2)c1)N1CCCC1`, the cytotoxicity at 70.5 h was 4.26%.

Turning to `CCc1sc(-c2nnc(CNCCn3cccn3)o2)cc1C`, the cytotoxicity at 70.5 h is -0.343%.

For `CC(NCCCC#N)c1ccc(-c2cccnc2)cc1` (configuration not stated), the cytotoxicity at 70.5 h was -2.12%.

For `Cc1ccc(S(=O)(=O)NC(=O)COc2ccc(CC#N)cc2)s1`, the cytotoxicity at 70.5 h was determined as 2.71%.

`CC1CCN(c2ccc(CNC(=O)NCCn3ccnc3)cn2)CC1`: the cytotoxicity at 70.5 h was -0.689%.

In the case of `COCCCNC(=O)NCc1ccc(N2CCOC(C)C2)nc1` (configuration not stated), the cytotoxicity at 70.5 h stood at 17.1%.

As for `Cc1cc(CS(=O)(=O)C(C)c2ccc(F)cc2)on1` (configuration not stated), the cytotoxicity at 70.5 h is -5.55%.

As for `CCc1sc(C(=O)Nc2cnn(CC(=O)NC3CC3)c2)cc1C`, the cytotoxicity at 70.5 h is -8.41%.

On to `CC1(C)Oc2ccc(NC(=O)c3ccc(=O)[nH]n3)cc2O1`, for which the cytotoxicity at 70.5 h was -12.5%.

On to `CN(C)c1ncc(CNC(=O)Nc2ccccc2C(F)(F)F)n1C`, for which the cytotoxicity at 70.5 h stood at 18.7%.

In the case of `Cc1ccc2c(c1)OC(C)CN2C(=O)Cc1ccc(C)nc1` (configuration not stated), the cytotoxicity at 70.5 h is -0.93%.

Turning to `CC(CCN(C)C)NC(=O)c1cccc(C(F)(F)F)c1F` (configuration not stated), the cytotoxicity at 70.5 h was -1.47%.

On to `Cc1csc(N(C)C(=O)C(c2c(F)cccc2Cl)N(C)C)n1` (configuration not stated), for which the cytotoxicity at 70.5 h is -0.598%.

As for `CC(CCN1CCOCC1)NC(=O)c1cccc(C(F)(F)F)c1F` (configuration not stated), the cytotoxicity at 70.5 h was -5.66%.

For the molecule `Cc1c(C(C)NC(=O)Nc2ccc(F)c(F)c2)cnn1C` (configuration not stated), the cytotoxicity at 70.5 h is -3.96%.

`COc1ccc2cc(CNc3c(C)nn(C(C)C)c3C)ccc2c1`: the cytotoxicity at 70.5 h is -0.974%.

With `O=C(CN1CCCC(c2ccn[nH]2)C1)Nc1nc2c(s1)CCCC2` (configuration not stated), the cytotoxicity at 70.5 h stood at 1.65%.

With `CCN(Cc1noc(CC(C)C)n1)Cc1ccccc1C`, the cytotoxicity at 70.5 h was -1.58%.

On to `Cc1nnc(NC(=O)CN2CCCC(c3ccn[nH]3)C2)s1` (configuration not stated), for which the cytotoxicity at 70.5 h was 18.6%.

As for `CC(C)NC(=O)CC(C)NCc1ccc(F)cc1Cl` (configuration not stated), the cytotoxicity at 70.5 h is -3.7%.

For `CC(C)NC(=O)CC(C)NCc1cc(Cl)ccc1F` (configuration not stated), the cytotoxicity at 70.5 h was -3.06%.

With `Cc1ccc2cc(C(=O)N3CCC(O)(C(F)(F)F)CC3)ccc2n1`, the cytotoxicity at 70.5 h was 0.437%.

As to `Cc1cc(C2CCCN(CC(=O)Nc3nc4c(s3)CCC4)C2)n[nH]1` (configuration not stated), the cytotoxicity at 70.5 h is 18.9%.

As for `CC1CCCN1C1CCN(C(=O)c2cccc(-c3ccoc3)c2)CC1` (configuration not stated), the cytotoxicity at 70.5 h worked out at 10.8%.

As to `CCS(=O)(=O)c1ccc(NCc2csc(C(C)C)n2)cc1`, the cytotoxicity at 70.5 h was 4.81%.

On to `Cc1ccc(OCCNC(=O)C2CCOCC2)c(C)c1`, for which the cytotoxicity at 70.5 h was 35.7%.

As for `Cc1noc(C)c1CN(C)c1ncnc2ccccc12`, the cytotoxicity at 70.5 h is -6.84%.

`c1ccc2[nH]c(C3CCN(Cc4nc(C5CC5)no4)CC3)cc2c1`: the cytotoxicity at 70.5 h was -1.32%.

For `COc1cccc(OCc2nnc3n2N=C(C(C)(C)C)CS3)c1`, the cytotoxicity at 70.5 h was -8.92%.

As for `CN(CC(N)=O)CC(=O)N(C1=CCCCC1)C1CC1`, the cytotoxicity at 70.5 h was -10.7%.

For the molecule `c1ccc2[nH]c(C3CCN(Cc4noc(C5CC5)n4)CC3)cc2c1`, the cytotoxicity at 70.5 h was -3.83%.

Turning to `CCOc1ccc(C#N)cc1NC(=O)N1CCCC(NC(=O)CC)C1` (configuration not stated), the cytotoxicity at 70.5 h was -7.12%.

Consider `CCNC(=O)C1CCCN(C(=O)Nc2cc(C#N)ccc2OCC)C1` (configuration not stated), for which the cytotoxicity at 70.5 h came out at 0.887%.

With `Cc1oc(C(=O)O)cc1S(=O)(=O)Nc1cccc(-c2nccs2)c1`, the cytotoxicity at 70.5 h is 6.48%.

As for `Cc1ccc(NS(=O)(=O)c2cc(C(=O)O)oc2C)c(Br)c1`, the cytotoxicity at 70.5 h was -6.35%.

On to `O=C(CN1CCSCC1c1ccccc1)N1CCCC1` (configuration not stated), for which the cytotoxicity at 70.5 h amounted to 20%.

Regarding `Cc1cccc(NS(=O)(=O)c2cc(C(=O)O)oc2C)c1`, the cytotoxicity at 70.5 h is -0.669%.

For the molecule `CN(C)C(=O)c1cc(NC(=O)N2CCCC(C(F)(F)F)C2)ccn1` (configuration not stated), the cytotoxicity at 70.5 h was -1.06%.

With `Cc1oc(C(=O)O)cc1S(=O)(=O)Nc1ccc(Cl)c(Cl)c1`, the cytotoxicity at 70.5 h is -3.75%.

Turning to `CC(C)(C)c1nnc(CN2CCC(c3cc4ccccc4[nH]3)CC2)o1`, the cytotoxicity at 70.5 h amounted to 17.4%.

Turning to `CN(CC(C)(C)O)C(=O)Nc1ccc(F)c(-n2cccc2)c1`, the cytotoxicity at 70.5 h was -9.2%.

With `CNC(=O)C(C)CN(C)C(=O)Nc1ccc(Cl)cc1-n1cccc1` (configuration not stated), the cytotoxicity at 70.5 h came out at 4.05%.

As for `CN(CC(N)=O)C(=O)c1cn(-c2ccc(Br)cc2)cn1`, the cytotoxicity at 70.5 h turned out to be 23.1%.

Consider `CC(CO)N(C)C(=O)c1cn(-c2ccc(Br)cc2)cn1` (configuration not stated), for which the cytotoxicity at 70.5 h was -7.34%.

With `CS(=O)(=O)CC1(CNc2ccc(C#N)c(C(F)(F)F)c2)CC1`, the cytotoxicity at 70.5 h is -3.35%.

For `Cc1nc(CC(C)C)sc1C(=O)N1CCC(C2(C)OCCO2)CC1`, the cytotoxicity at 70.5 h stood at 2.11%.

As for `CC(C)c1nc(CNc2ccc(CNS(C)(=O)=O)cc2)cs1`, the cytotoxicity at 70.5 h is -8.66%.

In the case of `Cc1nc(CC(C)C)sc1C(=O)N1CCC1`, the cytotoxicity at 70.5 h was -2.02%.

Turning to `CC(=O)N1CCN(CCNc2ncc(Br)cc2C)CC1`, the cytotoxicity at 70.5 h was -1.98%.

Regarding `CCOCC(=O)Nc1ncn(Cc2cccc(Br)c2)n1`, the cytotoxicity at 70.5 h came out at 17.2%.

As to `Cc1nn(C)c(Oc2cccc(F)c2)c1NC(=O)C1CCCO1` (configuration not stated), the cytotoxicity at 70.5 h is -6.09%.

On to `CCOCc1ccccc1NC(=O)NC1CCN(C(=O)OCC)CC1`, for which the cytotoxicity at 70.5 h is -5.57%.

Consider `CCOCc1ccccc1NC(=O)NC1CCN(CC(F)(F)F)C1` (configuration not stated), for which the cytotoxicity at 70.5 h is -6.42%.

Regarding `CCOCc1ccccc1NC(=O)NC1CCN(c2ccccc2)C1` (configuration not stated), the cytotoxicity at 70.5 h was -4.36%.

`CCOCc1ccccc1NC(=O)NC1CCN(C2CCCC2)C1` (configuration not stated): the cytotoxicity at 70.5 h is -6.21%.

Turning to `CCCNCc1cn(Cc2ccccc2)nc1-c1cccnc1`, the cytotoxicity at 70.5 h is -8.99%.
